The values below come from US11584711B2, “2,2,2-trifluoroacetic acid 1-(2,4-dimethylphenyl)-2-[(3-methoxyphenyl)methylene] method of making the same” (Abrexa Pharmaceuticals, Inc., priority 2018, dated 2023).

A word on the solubility: it is how much of the substance goes into solution per volume. What is called EC50 is the concentration giving half of the maximal effect.

Values after ≈ are worked out from the molar mass of the structure shown. “Also recorded” adds a separate entry of the source. Read-outs that look alike come from different tables or passages of the source.

Data set [1] can be described thus: Heat storage / variable temperature XRD form conversion. In kind it is physicochemical. As to conditions: for form conversion by XRD: 40° C. oven over weekend. The procedure: Recrystallization Using Heat: Amorphous/glass samples from Panel 1 were placed in a vacuum oven at 60° C. for 6 days. […] A sample of Form I was placed in a 40° C. in oven over a weekend.

Data set [2] in a line: Hygroscopicity-Dynamic Vapor Sorption (DVS). To be noted: 25° C.; for tendency to hydrate formation (DVS): 0 to 95% RH; for total weight loss (DVS): at 95% RH. The format is physicochemical. The procedure:
Hygroscopicity-Dynamic Vapor Sorption (DVS): DVS is a gravimetric screening technique that measures how quickly and how much of a solvent (water) is adsorbed by a sample. The relative humidity or vapor concentration surrounding the sample is varied while the change in mass of the sample is measured. […] The mass values at each relative humidity step are used to generate the isotherm. Isotherms are divided in two components: sorption for increasing humidity steps and desorption for decreasing humidity steps.
The samples were analyzed using a TA Q2000 automated dynamic vapor sorption analyzer. The samples were dried at 40° C. for 5 hours and then cooled to 25° C. with a dry nitrogen purge over them until they no longer lost mass at 0% RH. The samples were then subjected to 0 to 95% RH, back to 0% RH at 25° C. in 5% RH steps.

Another data set can be described thus: Grinding. The format is physicochemical. As to conditions: ball mill 1 minute at 4800 oscillations per minute. As to the method: Grinding: Form I was ground using a Crescent Wig-L-Bug ball mill for 1 minute at 4800 oscillations per minute (3.2 m/s).
Data set [3] can be described thus: Static Vapor Sorption Study. The format is physicochemical. To be noted: 75% RH static humidity chamber, ambient temperature, after 5 and 12 days. The text has this:
Static Vapor Sorption Study: A […] vapor sorption study was done in a sealed humidity chamber with an automatic moisture sorption balance. Data collected during dynamic vapor sorption studies often are not at thermodynamic equilibrium. To determine if the Form I and Form II material form a hydrate over time, samples were monitored in a 75% static humidity chamber.
In these studies, samples were stored in open Petri dishes in a chamber containing a saturated salt solution to maintain the relative vapor pressure. A solution of saturated sodium chloride (75% RH) salt at ambient temperature was used.
The samples were examined gravimetrically after 5 and 12 days.

Data set [4] is described as follows: Polymorph screen summary of solid state forms. As to conditions: room temperature and pressure. The format is physicochemical. An excerpt: The raw diffraction data generated from the polymorph screening experiments were categorized into two polymorphic forms. Samples of these different forms were used to perform additional experiments (DSC, TGA, HSM, etc.) to refine the forms.
The main result is the discovery of two anhydrous polymorphic forms of J147. The polymorphic forms isolated in this Example were designated I and II. At room temperature and pressure Form II is the thermodynamically form of J147. Form I is the metastable form at room temperature and pressure.

Data set [5] in a line: Competitive Slurry Experiments. In kind it is physicochemical. As to conditions: ambient temperature and pressure. The procedure:
These experiments rely on the solubility differences of different polymorphic forms.
The slurry experiments were performed by exposing excess material of Forms I and II to a small volume of solvent/water and agitating the resulting suspensions for several days at ambient temperature. The solids were filtered and analyzed by XRD and DSC to determine the resulting form. To avoid possible desolvation or physical change after isolation, the sample was not dried before x-ray analysis.

Data set [6] in a line: Visual Solubility Measurement. In kind it is physicochemical. As to conditions: thermodynamic from solid, ambient temperature, read-out: Approximate Solubility. As to the method:
Visual Solubility Measurement: Approximately 80 mg of J147 was placed into each of 25 vials. Solvent was added and vials were stirred for several minutes at ambient temperature, followed by visual observation for remaining solids. The solvent was incrementally added until the solids were dissolved, or until a maximum volume of solvent was added and the experiment was terminated. These stock solutions were used to set up further panels of experiments.

Data set [7] deals with neurotoxicity pathways related to aging and neurodegenerative diseases. As to conditions: assays indicating distinct neurotoxicity pathways; cited from earlier work.
The next data set relates to normal rodents. As to conditions: cited from earlier work.
Data set [8] has as its system transgenic AD mouse model. As to conditions: cited from earlier work.

Turning to `COc1cccc(/C=N/N(C(=O)C(F)(F)F)c2ccc(C)cc2C)c1` [Amorphous/glass samples from Panel 1], the “form by XRD after heating” value in data set [1] (vacuum oven at 60° C. for 6 days) is given as “XRD pattern of Form II”.
Consider `COc1cccc(C=NN(C(=O)C(F)(F)F)c2ccc(C)cc2C)c1` [Form I, 2,2,2-trifluoroacetic acid 1-(2,4-Dimethylphenyl)-2-[(3-methoxyphenyl)methylene]hydrazide], for which, in data set [2], the “tendency to hydrate formation (DVS)” value is given as “does not appear to be prone to hydrate formation; also recorded: did not appear to be prone to hydrate formation” and the “total weight loss (DVS)” value is reported as “approximately 0.5%”. Also, in data set [1], the “form conversion by XRD” value is “conversion to Form II”. For the same compound, in [1] (held at 35° C. over a weekend), the “form conversion by variable temperature XRD” value is given as “no form conversion”. Besides, the “form transformation by XRD after grinding” value in the data set “Grinding” is given as “no transformation”. Besides, the “hydrate formation (gravimetric weight change)” value in [3] is “no hydrate formation”. Further, in data set [4], the “Description (thermodynamic stability of form)” value is reported as “Metastable”.
As for `COc1cccc(C=NN(C(=O)C(F)(F)F)c2ccc(C)cc2C)c1` [Form II, 2,2,2-trifluoroacetic acid 1-(2,4-Dimethylphenyl)-2-[(3-methoxyphenyl)methylene]hydrazide], in data set [2], the “tendency to hydrate formation (DVS)” value is on record as “does not appear to be prone to hydrate formation” and the “total weight loss (DVS)” value was “approximately 0.5%”. Besides, the “solubility and thermodynamic stability relative to Form I” value in data set [5] is “less soluble, more thermodynamically stable”. Further, the “form conversion by XRD” value in data set [1] is recorded as “no form conversion”. For the same compound, the “hydrate formation (gravimetric weight change)” value in [3] was “no hydrate formation”. In [4], the “Description (thermodynamic stability of form)” value was “Thermodynamically”.
As to `COc1cccc(/C=N/N(C(=O)C(F)(F)F)c2ccc(C)cc2C)c1` [Form J147, 2,2,2-trifluoroacetic acid 1-(2,4-Dimethylphenyl)-2-[(3-methoxyphenyl)methylene] hydrazide], the solubility in [6] (organic solvent or mixture, 1-butanol) is 40 mg/mL (≈ 114 mM); in data set [6] (organic solvent or mixture, 1-propanol) it was above 80 mg/mL; in data set [6] (organic solvent or mixture, 2-butanol), 40 mg/mL (≈ 114 mM); in data set [6] (organic solvent or mixture, 2-propanol) it was 40 mg/mL (≈ 114 mM); in data set [6] (organic solvent or mixture, acetone), above 80 mg/mL; in [6] (organic solvent or mixture, acetonitrile (ACN)), above 80 mg/mL. The solubility in data set [6] (organic solvent or mixture, butyl amine) was above 80 mg/mL; in data set [6] (organic solvent or mixture, chloroform), above 80 mg/mL; in data set [6] (organic solvent or mixture, dichloromethane (DCM)) it was above 80 mg/mL; in data set [6] (organic solvent or mixture, dimethyl formamide (DMF)), above 80 mg/mL; in [6] (organic solvent or mixture, dimethylacetamide (DMA)), above 80 mg/mL; in [6] (organic solvent or mixture, ethanol) it was above 80 mg/mL. In addition, the solubility in data set [6] (organic solvent or mixture, ethyl acetate) was above 80 mg/mL; in [6] (organic solvent or mixture, heptane), 8 mg/mL (≈ 22.8 mM); in data set [6] (organic solvent or mixture, isopropyl acetate), above 80 mg/mL; in [6] (organic solvent or mixture, isopropyl ether) it was above 80 mg/mL; in [6] (organic solvent or mixture, methanol), above 80 mg/mL; in [6] (organic solvent or mixture, methyl ethyl ketone (MEK)) it was above 80 mg/mL. Moreover, the solubility in data set [6] (organic solvent or mixture, methyl tert butyl ether (MTBE)) is above 80 mg/mL; in [6] (organic solvent or mixture, nitromethane) it was above 80 mg/mL; in data set [6] (organic solvent or mixture, pyridine), above 80 mg/mL; in data set [6] (organic solvent or mixture, tetrahydrofuran (THF)) it was above 80 mg/mL; in data set [6] (organic solvent or mixture, toluene) it was above 80 mg/mL; in data set [6] (organic solvent or mixture, trifluoroethanol), above 80 mg/mL. Besides, the solubility in data set [6] (water) was below 1.6 mg/mL. Further, in data set [7], the EC50 was 10 to 200 nM. The effect on memory result with normal rodents is listed as “improve memory”. Also, the “effect on synaptic proteins and cognitive decline” value in data set [8] is “prevent the loss of synaptic proteins and cognitive decline”.
